According to PubChem BioAssay AID179 (DTP/NCI, 2004):
Values joined by “and” are separate entries in the source; they are usually repeats but may differ in a detail not shown here. Equal values may be shown once. Active and inactive are the calls of the source.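 Rule for the calls: active = compounds giving half or more protection of infected cells from virus-caused growth loss, again on retest; inactive = the rest.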 Where a SMILES comes first, the peptide text is derived from it. The star is where a group is joined. Myristoyl = CCCCCCCCCCCCCC(=O)*

Test system: CEM cells HIV-1 protection, formazan growth assay
Test: NCI AIDS Antiviral Assay
Conditions: for IC50: measured here: growth of uninfected CEM cells
Outline: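 Five concentrations of each compound were applied to infected and uninfected human CEM cells. Protection from HIV-1 was judged from growth measured with a soluble formazan assay.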

## CC1=N/C(=C\c2ccccc2Br)C(=O)O1
  EC50: > 97.7 µM
  IC50: > 97.7 µM

## O=c1oc2ccccc2c(O)c1C(c1cccc(C(c2c(O)c3ccccc3oc2=O)c2c(O)c3ccccc3oc2=O)c1)c1c(O)c2ccccc2oc1=O
  EC50: 42.7 µM
  IC50: > 100 µM

## S=C1N/N=C/NN/C=N/N1
  EC50: > 562 µM
  IC50: 282 µM

## CN1C(c2ccccc2)CS(=O)(=O)CS1(=O)=O (stereo unspecified)
  outcome: inactive

## O=C(CC(c1ccccc1)C(C(=O)c1ccncc1)C(CC(=O)c1ccncc1)c1ccccc1)c1ccncc1 (stereo unspecified)
  EC50: > 200 µM
  IC50: > 200 µM

## CCCCCCCCCCCCCC(=O)NCC(=O)NC(C)C(=O)NC(CCCNC(=N)N)C(=O)NC(C)C(=O)NC(CO)C(=O)NC(C(=O)NC(CC(C)C)C(=O)NC(CO)C(=O)NCC(=O)NCC(=O)NC(CCC(=O)O)C(=O)NC(CC(C)C)C(=O)NC(CC(=O)O)C(=O)NC(CCCNC(=N)N)C(=O)NC(Cc1c[nH]c2ccccc12)C(=O)NC(Cc1ccc(O)cc1)C(N)=O)C(C)C (stereo unspecified) (Myristoyl-GARASVLSGGELDRWY-NH2; configuration not given here)
  EC50: > 129 µM
  IC50: > 129 µM

## C/C=C/C[P+](c1ccccc1)(c1ccccc1)c1ccccc1
  EC50: > 200 µM
  IC50: 1.48 µM and 1.32 µM

## CC1(/C=C/CCSc2ccccc2)CC(=O)C2CC1C2(C)C (stereo unspecified)
  EC50: > 200 µM
  IC50: 7.94 µM

## CON(C)c1nc(Cl)nc(N(C)OC)n1
  EC50: > 200 µM
  IC50: > 200 µM

## CNc1nc(N(C)C)nc(N(C)C)n1
  EC50: > 537 µM
  IC50: 407 µM

## CCC[CH2][Sn]([CH2]CCC)([O]C(=O)CN)[O]C(=O)CN
  EC50: > 33.9 µM
  IC50: 2.45 µM

## COc1cc(Nc2nc3ccc(C(F)(F)F)cc3nc2-c2ccccc2)cc(OC)c1OC
  EC50: > 20.9 µM
  IC50: > 20.9 µM

## CCOC(=O)C[C@]1(O)[C@@H](CO[Si](C)(C)C(C)(C)C)O[C@@H](n2ccc(=O)[nH]c2=O)[C@@H]1O[Si](C)(C)C(C)(C)C
  EC50: > 200 µM
  IC50: 10.7 µM

## CC(=O)Nc1ccc(/C=C2/NC(=S)N(/C=C3\C(=O)Oc4ccccc4C3=O)C2=O)cc1
  EC50: > 200 µM
  IC50: 155 µM

## CSc1nc2[nH]c(=O)c(C)nc2c(=O)[nH]1
  EC50: > 23.4 µM
  IC50: > 23.4 µM

## COc1ccc2c(c1)-c1c(c3cc(OC)ccc3n1CCN(C)C)CC2
  outcome: inactive

## CCCCCC(/C=C/C1CCC(=O)C1CC#C[Si](C)(C)C)OCc1ccccc1 (stereo unspecified)
  EC50: > 200 µM
  IC50: 27.5 µM

## C=CCNC(=O)NCCCC(NC(C)=O)C(=O)NCc1ccccc1 (stereo unspecified)
  EC50: > 72.4 µM
  IC50: > 72.4 µM

## N#C/C(=C\c1ccc(O)c(O)c1)C(=O)NCCCCCCCCCCNC(=O)/C(C#N)=C/c1ccc(O)c(O)c1
  EC50: > 200 µM
  IC50: 2.75 µM

## Nc1ccc(C(=O)NN2C(=O)C(Cl)C2c2ccccc2Cl)cc1 (stereo unspecified)
  EC50: > 200 µM
  IC50: 3.31 µM

## CCCCCCCCCCC#CCC(=O)SCCNC(=O)CCNC(=O)[C@@H](O)C(C)(C)COP(=O)(O)OP(=O)(O)OCC1OC(n2cnc3c(N)ncnc32)C(O)C1OP(=O)(O)O (stereo partly specified)
  outcome: inactive

## NCC#CCNCCCN1CC1
  EC50: > 200 µM
  IC50: > 200 µM

## CC1OC(=O)C(C(C)C)NC(=O)C(C(C)C)OC(=O)C(C(C)C)NC(=O)C(C)OC(=O)C(C(C)C)NC(=O)C(C(C)C)OC(=O)C(C(C)C)NC(=O)C(C)OC(=O)C(C(C)C)NC(=O)C(C(C)C)OC(=O)C(C(C)C)NC1=O (stereo unspecified)
  EC50: > 0.02 µM
  IC50: 0.00102 µM

## O=C1CSc2ccncc2N1
  EC50: > 1510 µM
  IC50: > 1510 µM

## CCOC(=O)c1cc(-c2ccccn2)c(=O)n2ccccc12
  EC50: > 200 µM
  IC50: 49 µM

## CC(=O)O[C@@]12[C@@H]3O[C@@]4(O)C[C@]5(C)[C@H]6C[C@@](C(C)C)(O[C@H]5c5ccoc5)O[C@H]1[C@]6(C4)O[C@]2(O)C(C)=CC3(C)C
  EC50: > 100 µM
  IC50: 52.5 µM

## O=[N+]([O-])c1cccc([N+](=O)[O-])c1Cl
  EC50: > 200 µM
  IC50: 16.6 µM

## CCn1c(O)c(C=Nc2ccccc2)s/c1=N/Nc1nc(-c2ccccc2)cs1
  EC50: > 200 µM
  IC50: 24.5 µM

## Cc1nc2c(cc1C(=O)N/N=C/c1ccc([N+](=O)[O-])cc1)c(=O)n(C)c(=O)n2C
  EC50: > 200 µM
  IC50: > 200 µM

## CCOC(=O)c1c2c(nc3c1CCC/C3=C\c1ccccc1)/C(=C/c1ccccc1)CCC2
  EC50: > 200 µM
  IC50: > 200 µM

## COc1ccc(C2=NN(C(C)=O)c3nc4ccccc4nc3O2)cc1
  outcome: inactive

## COC(=O)C1(O)c2ccccc2N=C2C1CCN2C (stereo unspecified)
  EC50: > 27.5 µM
  IC50: > 27.5 µM

## C#CCOC(=O)[C@@H](C)c1ccc2cc(OC)ccc2c1
  EC50: > 200 µM
  IC50: 47.9 µM

## COC(=O)C(NC(=O)C(CC(=O)OC(C)(C)C)NC(=O)OC(C)(C)C)C(O)c1ccccc1 (stereo unspecified)
  EC50: > 200 µM
  IC50: > 200 µM

## Cc1cccc(C)c1NC(=O)CCC(=O)NC(N)=S
  EC50: > 339 µM
  IC50: > 339 µM

## CC(C)(C)c1cc(-c2c3nc(c(-c4cc(C(C)(C)C)cc(C(C)(C)C)c4)c4ccc([nH]4)c(-c4cc(C(C)(C)C)cc(C(C)(C)C)c4)c4nc(c(-c5cc(C(C)(C)C)cc(C(C)(C)C)c5)c5ccc2[nH]5)C=C4)C=C3)cc(C(C)(C)C)c1
  EC50: > 33.9 µM
  IC50: > 33.9 µM

## Cc1ccc(Oc2ccc(C)cc2[N+](=O)[O-])cc1
  outcome: inactive

## O=C1c2cc3c(cc2NC(c2ccccc2F)C1O)OCO3 (stereo unspecified)
  EC50: > 200 µM
  IC50: 12 µM

## O=C1CC=CN1CCn1c(=S)[nH]c2ccccc21
  EC50: > 501 µM
  IC50: > 501 µM

## CCc1cccc(C(C)C)c1NC(=O)C(=O)C(C(=O)C(=O)OC)c1nc2ccccc2[nH]c1=O (stereo unspecified)
  EC50: > 537 µM
  IC50: 269 µM

## CC(=O)Nc1ccc(C=Nc2ccc(SSc3ccc(N=Cc4ccc(NC(C)=O)cc4)cc3)cc2)cc1
  EC50: > 200 µM
  IC50: 23.4 µM

## COC1/C=C/OC2(C)Oc3c(C)c(O)c4c(O)c(c(/C=N/Nc5nc6c(N)ncnc6n5C5OC(CO)C(O)C5O)c(O)c4c3C2=O)NC(=O)C(C)=C/C=C/C(C)C(O)C(C)C(O)C(C)C(OC(C)=O)C1C (stereo unspecified)
  EC50: > 200 µM
  IC50: 158 µM

## O/N=C/c1cc2c(cc1Br)OCO2
  EC50: > 155 µM
  IC50: > 155 µM

## C=CCn1c2c(c3ccccc3c1=O)C(=O)c1ccccc1-2
  EC50: > 91.2 µM
  IC50: > 91.2 µM

## CCOC(=O)/C(=C\c1ccc(F)cc1)C(C)=O
  EC50: > 398 µM
  IC50: 79.4 µM

## CC1CC(=O)c2c(ccc3c2C(=O)c2cccc(O)c2C3=O)C1 (stereo unspecified)
  outcome: inactive

## O=C(O)CSCc1cc2c(O)c(c1)Cc1cc(CSCC(=O)O)cc(c1O)Cc1cc(CSCC(=O)O)cc(c1O)Cc1cc(CSCC(=O)O)cc(c1O)C2
  EC50: > 22.4 µM
  IC50: > 22.4 µM

## CN(C)c1ccc(-c2[nH]c(=O)c3ccccc3[n+]2C)cc1
  EC50: > 200 µM
  IC50: 66.1 µM

## OC(Cc1ccc(Br)cc1)CN1CCC(c2ccccc2)CC1 (stereo unspecified)
  EC50: > 229 µM
  IC50: 17.8 µM and 9.55 µM

## Cc1c(Cl)cccc1NC(=O)C(=O)c1c(O)c2ccc(O)cc2oc1=O
  EC50: > 95.5 µM
  IC50: > 95.5 µM

## N.N.N.N.O=C([O-])O.O=C([O-])[O-].[Co+3]
  outcome: inactive

## COC(=O)/C=C1\SC(OC)(N(C)c2ccccc2)N(C)C1=O (stereo unspecified)
  EC50: > 155 µM
  IC50: 145 µM

## COc1c(C)c(C/C=C(\C)CC/C=C(\C)CCC=C(C)C)c(OC)c(OC)c1OC
  EC50: > 200 µM
  IC50: > 200 µM

## CC1OC(OC23C(=O)CC(C)(O)CC2(O)C=CC2=C3C(=O)c3ccc(C4CC(OC5CCC(OC6CC(O)C(O)C(C)O6)C(C)O5)C(O)C(C)O4)c(O)c3C2=O)CCC1O (stereo unspecified)
  EC50: > 295 µM
  IC50: 4.9 µM
